Data reported in patent US10448639B2, “Fungicidal pyrazoles” (FMC CORPORATION, priority 2009, dated 2019).
Where two headings read alike, the source gives them in different places.

Experiments:
[1] = test system: Erysiphe graminis f sp. tritici; test: Test J: wheat powdery mildew, preventive spray on wheat seedlings, visual disease rating; details: for Test J rating (% disease control) / Test J disease control rating: wheat powdery mildew, 100 = 100% disease control; for Test J disease control rating: sprayed the day before inoculation, 0 = no disease control relative to controls; for pest or weed control at 200 µg/mL: Blumeria graminis, in Triticum aestivum, 192 h
[2] = test system: Puccinia recondita f. sp. tritici; test: Test H: wheat leaf rust, curative spray on inoculated wheat seedlings, visual disease rating; details: for Test H rating (% disease control) / Test H disease control rating: wheat leaf rust, 100 = 100% disease control; for Test H disease control rating: sprayed after inoculation, 0 = no disease control relative to controls; for pest or weed control at 200 µg/mL: 144 h
Text: (§1) General protocol for preparing test suspensions for Tests A-J: the test compounds were first dissolved in acetone in an amount equal to 3% of the final volume and then suspended at the desired concentration (in ppm) in acetone and purified water (50/50 mix by volume) containing 250 ppm of the surfactant Trem® 014 (polyhydric alcohol esters). The resulting test suspensions were then used in Tests A-J. Spraying a 200 ppm test suspension to the point of run-off on the test plants was the equivalent of a rate of 500 g/ha. Unless otherwise indicated, the rating values indicate a 200 ppm test suspension was used. (An asterisk “*” next to the rating value indicates a 40 ppm test suspension was used.)
Wheat seedlings were inoculated with a spore suspension of Puccinia recondita f. sp. tritici (the causal agent of wheat leaf rust) and incubated in a saturated atmosphere at 20° C. for 24 h, and then moved to a growth chamber at 20° C. for 2 days. At the end of this time the test suspension was sprayed to the point of run-off, and then the seedlings were moved to a growth chamber at 20° C. for 6 days after which time visual disease ratings were made.

[3] = test system: Puccinia recondita f. sp. tritici; test: Test I: wheat leaf rust, preventive spray on wheat seedlings, visual disease rating; details: for Test I rating (% disease control) / Test I disease control rating: wheat leaf rust, 100 = 100% disease control; for Test I disease control rating: sprayed the day before inoculation, 0 = no disease control relative to controls; for pest or weed control at 200 µg/mL: 192 h
Botrytis cinerea = test: Test B: tomato Botrytis, preventive spray on tomato seedlings, visual disease rating; details: for Test B rating (% disease control) / Test B disease control rating: tomato Botrytis, 100 = 100% disease control; for Test B disease control rating: 0 = no disease control relative to controls; for pest or weed control at 200 µg/mL: Botrytis cinerea, in Solanum lycopersicum, 120 h
Text: as §1
The test suspension was sprayed to the point of run-off on tomato seedlings. The following day the seedlings were inoculated with a spore suspension of Botrytis cinerea (the causal agent of tomato Botrytis) and incubated in saturated atmosphere at 20° C. for 48 h, and then moved to a growth chamber at 24° C. for 3 additional days, after which time visual disease ratings were made.

Septoria nodorum = test: Test F: Septoria glume blotch, preventive spray on wheat seedlings, visual disease rating; details: for Test F rating (% disease control) / Test F disease control rating: 100 = 100% disease control; for Test F disease control rating: 0 = no disease control relative to controls; for pest or weed control at 200 µg/mL: Parastagonospora nodorum, in Triticum aestivum, 192 h
Septoria tritici = test: Test G: wheat leaf blotch, preventive spray on wheat seedlings, visual disease rating; details: for Test G rating (% disease control) / Test G disease control rating: wheat leaf blotch, 100 = 100% disease control; for Test G disease control rating: sprayed the day before inoculation, 0 = no disease control relative to controls; for pest or weed control at 200 µg/mL: Zymoseptoria tritici, in Triticum aestivum, 504 h
Alternaria solani = test: Test C: tomato early blight, preventive spray on tomato seedlings, visual disease rating; details: for Test C rating (% disease control) / Test C disease control rating: tomato early blight, 100 = 100% disease control; for Test C disease control rating: 0 = no disease control relative to controls; for pest or weed control at 200 µg/mL: Alternaria solani, in Solanum lycopersicum, 168 h
[4] = 0 = no control relative to controls
[5] = curative, 0 = no control relative to controls
[6] = preventive, 0 = no control relative to controls
[7] = Septoria glume blotch, 0 = no control relative to controls
[8] = preventive spray, 0 = no control
[9] = Septoria glume blotch on wheat, preventive spray, 0 = no control

| SMILES | Test J rating (% disease control) [1, 4] [%] | Test H rating (% disease control) [2, 5] [%] | Test I rating (% disease control) [3, 6] [%] | Test B rating (% disease control) (Botrytis cinerea; [4]) [%] | Test F rating (% disease control) (Septoria nodorum; [7]) [%] | Test G rating (% disease control) (Septoria tritici; [4]) [%] | Test C rating (% disease control) (Alternaria solani; [4]) [%] | Test J disease control rating [1] [%] | Test H disease control rating [2] [%] | Test I disease control rating [3] [%] | Test B disease control rating (Botrytis cinerea) [%] | Test F disease control rating (Septoria nodorum; Septoria glume blotch on wheat) [%] | Test G disease control rating (Septoria tritici) [%] | Test C disease control rating (Alternaria solani) [%] | further results |
| --- | --- | --- | --- | --- | --- | --- | --- | --- | --- | --- | --- | --- | --- | --- | --- |
| Cc1nn(C)c(Nc2cc(F)ccc2F)c1-c1ccc(F)cc1F [compound 226] | 100 | 28 | 91 | 99 | 0 | 96 | 0 | – | – | – | – | – | – | – | – |
| Cc1nn(C)c(Nc2ccc(F)cc2)c1-c1c(Cl)cccc1Cl [compound 337] | – | – | – | – | – | – | – | 98 | 9 | 41 | 99 | 0 | 99 | 0 | – |
| COc1cc(F)c(-c2c(C)nn(C)c2Oc2ccc(Br)c(C)c2)c(F)c1 [compound 186] | 93 | 0 | 54 | 0 | 0 | 99 | 0 | – | – | – | – | – | – | – | – |
| COc1cc(F)c(-c2c(C)nn(C)c2Nc2c(F)cc(C#N)cc2F)c(F)c1 [compound 82] | – | – | – | – | – | – | – | – | – | – | – | – | – | – | Test J rating (% disease control) [1, 8]: 13%; Test H rating (% disease control) ([2]; curative spray, 0 = no control): 0%; Test I rating (% disease control) [3, 8]: 68%; Test B rating (% disease control) (Botrytis cinerea; [8]): 100%; Test F rating (% disease control) (Septoria nodorum; [9]): 40%; Test G rating (% disease control) (Septoria tritici; [8]): 99%; Test C rating (% disease control) (Alternaria solani; [8]): 100% |
| Cc1nn(C)c(Nc2ccc(F)cc2)c1-c1c(F)cc(C#N)cc1F [compound 111] | – | – | – | – | – | – | – | – | – | – | – | – | – | – | Test J rating (% disease control) [1, 8]: 99%; Test H rating (% disease control) ([2]; curative spray, 0 = no control): 0%; Test I rating (% disease control) [3, 8]: 97%; Test B rating (% disease control) (Botrytis cinerea; [8]): 99%; Test F rating (% disease control) (Septoria nodorum; [9]): 90%; Test G rating (% disease control) (Septoria tritici; [8]): 99%; Test C rating (% disease control) (Alternaria solani; [8]): 75% |
| Cc1nn(C)c(Nc2c(F)cc(F)cc2Cl)c1-c1c(F)cccc1F [Compound 297, N-(2-chloro-4,6-difluorophenyl)-4-(2,6-difluorophenyl)-1,3-dimethyl-1H-pyrazol-5-amine] | – | – | – | – | – | – | – | – | – | – | – | – | – | – | pest or weed control at 200 µg/mL ([1]; read-out: Test J rating (% disease control)): 100%; pest or weed control at 200 µg/mL ([2]; read-out: Test H rating (% disease control)): 0%; pest or weed control at 200 µg/mL ([3]; read-out: Test I rating (% disease control)): 100%; pest or weed control at 200 µg/mL (Botrytis cinerea; read-out: Test B rating (% disease control)): 100%; pest or weed control at 200 µg/mL (Septoria nodorum; read-out: Test F rating (% disease control)): 90%; pest or weed control at 200 µg/mL (Septoria tritici; read-out: Test G rating (% disease control)): 100%; pest or weed control at 200 µg/mL (Alternaria solani; read-out: Test C rating (% disease control)): 99% |
| CCN(c1c(F)cc(OC)cc1F)c1c(-c2ccc(F)cc2Cl)c(C)nn1C [compound 158] | 98 | 18 | 99 | 100 | 0 | 99 | 0 | – | – | – | – | – | – | – | – |
| COc1cc(Oc2c(-c3c(F)cc(F)cc3F)c(C)nn2C)ccc1C [compound 217] | 99 | 40 | 79 | 75 | 0 | 83 | 0 | – | – | – | – | – | – | – | – |
| Cc1nn(C)c(Nc2ccc(F)cc2F)c1-c1ccc(C#N)cc1Cl [compound 331] | – | – | – | – | – | – | – | 97 | 8 | 100 | 100 | 73 | 100 | 80 | – |
| Cc1nn(C)c(Nc2cc(F)ccc2F)c1-c1ccc(F)cc1Cl [compound 173] | 100 | 0 | 83 | 100 | 0 | 98 | 86 | – | – | – | – | – | – | – | – |
| COc1ccc(-c2c(C)nn(C)c2Oc2ccc(C#N)cc2Cl)c(Cl)c1 [compound 311] | – | – | – | – | – | – | – | 91 | 0 | 99 | 100 | 60 | 100 | 0 | – |
| Cc1nn(C)c(Nc2c(F)cc(F)cc2F)c1-c1cccc(F)c1F [compound 203] | 100 | 0 | 96 | 99 | 0 | 98 | 0 | – | – | – | – | – | – | – | – |
| Cc1nn(C)c(Oc2ccc([N+](=O)[O-])c(C#N)c2)c1-c1c(F)cc(F)cc1F [compound 156] | 47 | 0 | 41 | 94 | 0 | 73 | 0 | – | – | – | – | – | – | – | – |
| COc1ccc(-c2c(C)nn(C)c2Nc2ccc(F)cc2F)c(Cl)c1 [compound 160] | 100 | 8 | 100 | 98 | 0 | 99 | 99 | – | – | – | – | – | – | – | – |
| Cc1nn(C)c(Nc2ccc(F)cc2)c1-c1ccccc1F [compound 184] | 98 | 0 | 82 | 97 | 0 | 99 | 0 | – | – | – | – | – | – | – | – |
| Cc1nn(C)c(Nc2ccc(Cl)cc2Cl)c1-c1c(Cl)cccc1Cl [compound 327] | – | – | – | – | – | – | – | 99 | 0 | 96 | 99 | 0 | 100 | 0 | – |
| COc1ccc(Cl)c(Nc2c(-c3c(F)cccc3F)c(C)nn2C)c1 [compound 215] | 99 | 0 | 94 | 89 | 0 | 98 | 0 | – | – | – | – | – | – | – | – |
| Cc1nn(C)c(Nc2c(Cl)cc(F)cc2Cl)c1-c1ccc(Cl)cc1Cl [compound 363] | – | – | – | – | – | – | – | 43 | 0 | 96 | 65 | 0 | 99 | 0 | – |
| Cc1nn(C)c(Nc2c(F)cc(Br)cc2F)c1-c1ccc(F)cc1Cl [Compound 365, N-(4-bromo-2,6-difluorophenyl)-4-(2-chloro-4-fluorophenyl)-1,3-dimethyl-1H-pyrazol-5-amine] | – | – | – | – | – | – | – | – | – | – | – | – | – | – | pest or weed control at 200 µg/mL ([1]; read-out: Test J disease control rating): 100%; pest or weed control at 200 µg/mL ([2]; read-out: Test H disease control rating): 74%; pest or weed control at 200 µg/mL ([3]; read-out: Test I disease control rating): 100%; pest or weed control at 200 µg/mL (Botrytis cinerea; read-out: Test B disease control rating): 100%; pest or weed control at 200 µg/mL (Septoria nodorum; read-out: Test F disease control rating): 64%; pest or weed control at 200 µg/mL (Septoria tritici; read-out: Test G disease control rating): 100%; pest or weed control at 200 µg/mL (Alternaria solani; read-out: Test C disease control rating): 99% |
| COc1ccc(-c2c(C)nn(C)c2Oc2ccc(C#N)cc2F)c(Br)c1 [compound 319] | – | – | – | – | – | – | – | 95 | 0 | 99 | 92 | 100 | 100 | 88 | – |
